Source: US12679807B2 (MERCK SHARP & DOHME LLC, priority 2020, dated 2026)

These compounds were tested against T1, GCS enzyme contained within Golgi preparations isolated from human A375 malignant melanoma skin cells (Homo sapiens, UniProt Q16739) (assay: UDP-Glo glucosylceramide synthase biochemical assay). Conditions: crude Golgi preparation from A375 cells; C6 ceramide and UDP-glucose substrates; 20 h incubation at room temperature; UDP detected by luminescence.
T1 construct: endogenous levels of GCS enzyme contained within Golgi preparations isolated from human A375 malignant melanoma skin cells; endogenous in cells; host or cells: A375 human malignant melanoma cells (crude Golgi preparation)
T1 sequence (Q16739 1-394): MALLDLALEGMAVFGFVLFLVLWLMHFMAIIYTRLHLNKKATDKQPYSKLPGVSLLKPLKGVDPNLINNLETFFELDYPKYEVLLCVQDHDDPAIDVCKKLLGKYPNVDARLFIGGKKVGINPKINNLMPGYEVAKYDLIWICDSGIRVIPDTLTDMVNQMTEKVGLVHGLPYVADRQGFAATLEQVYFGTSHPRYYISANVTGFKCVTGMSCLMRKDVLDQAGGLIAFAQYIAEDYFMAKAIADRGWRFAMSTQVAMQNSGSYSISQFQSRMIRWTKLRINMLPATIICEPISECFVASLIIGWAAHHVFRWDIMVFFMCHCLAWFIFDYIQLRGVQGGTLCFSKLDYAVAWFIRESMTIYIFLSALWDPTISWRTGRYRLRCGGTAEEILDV
From the text: UDP-Glo™ Glucosylceramide Synthase Biochemical Assay
A UDP-Glo™ glucosylceramide synthase biochemical assay was utilized to evaluate the effect of test compounds on the activity of endogenous levels of GCS enzyme contained within Golgi preparations isolated from human A375 malignant melanoma skin cells. The UDP-Glo™ glucosylceramide synthase assay uses UDP-Glucose as a nucleotide-glycosyl donor and ceramide as substrate acceptor molecules. In the reaction, glucosylceramide synthase (GCS) transfers glucose from UDP-Glucose to ceramide. Glucosylceramide and UDP are released as products.
Using Promega's UDP-Glo™ Glycosyltransferase assay kit (Promega Corporation, Madison, WI, USA (Promega)), GCS activity was indirectly measured by detecting the amount of UDP produced. An aliquot of GCS enzyme (1.5 μg crude golgi preparation, total protein) and titrated test compound were aliquoted to each well and incubated for 30 minutes at room temperature. […] An equivalent volume of substrate mixture was then added to each well. Following a 20 h incubation at room temperature to allow for GCS turnover of substrate, an equal volume of UDP detection reagent (Promega) was added to each well and incubated for an additional 75 minutes at room temperature to simultaneously convert the accumulated UDP product into ATP and generate light in a luciferase reaction. The generated light was detected using a luminometer. […] luminescence values (RLUs) were normalized to mean “min” and “max” effects, as determined on each plate. […] Values for % Emax and EC50 were determined by best-fitting the normalized data to a curve in Activity Base along a four-parameter logistic nonlinear regression (4PL) model (based on the Levenberg-Marquardt algorithm and defined by the equation below):
[formula] where: n is 4 PMin (bottom of the curve); m is 4 PMax (top of the curve); i is IP (inflection point of curve); and p is slope. See Levenberg, K., “A Method for the Solution of Certain Problems in Least Squares”, Quart. Appl. Math. […] Math.

| Structure (SMILES) | EC50 |
| --- | --- |
| Cc1nc(-c2ccc(-c3cccc4c3C(=O)N([C@H](C3CC3)C(C)(C)O)C4)cc2)no1 [Compound 88, (R)-2-(1-cyclopropyl-2-hydroxy-2-methylpropyl)-7-(4-(5-methyl-1,2,4-oxadiazol-3-yl)phenyl)isoindolin-1-one] | 90 nM |
| C[C@@H](N1Cc2cccc(-c3ccccc3OCC(F)(F)F)c2C1=O)C(C)(C)O [Compound 46, (R)-2-(3-hydroxy-3-methylbutan-2-yl)-7-(2-(2,2,2-trifluoroethoxy)phenyl) isoindolin-1-one] | 140 nM |
| O=C(Nc1cccc2c1C(=O)N(CC1CC1)C2)c1c2c(nc3ccccc13)CCC2 [Compound 128, N-(2-(cyclopropylmethyl)-3-oxoisoindolin-4-yl)-2,3-dihydro-1H-cyclopenta[b]quinoline-9-carboxamide] | 38 nM |
| CC(C)(O)C(C1CC1)N1Cc2cccc(/C=C/c3c(Cl)cnc4c3OCO4)c2C1=O (single isomer, unassigned) [Compound 174, (R or S)-(E)-7-(2-(6-Chloro-[1,3]dioxolo[4,5-b]pyridin-7-yl)vinyl)-2-(1-cyclopropyl-2-hydroxy-2-methylpropyl)isoindolin-1-one] | 6.8 nM |
| Cc1ncc(-c2ccc(-c3cccc4c3C(=O)N([C@H](C3CC3)C(C)(C)O)C4)cc2)o1 [Compound 91, 2-[(1R)-1-cyclopropyl-2-hydroxy-2-methyl-propyl]-7-[4-(2-methyloxazol-5-yl)phenyl]isoindolin-1-one] | 520 nM |
| Cc1nn(C)c(C)c1-c1cccc2c1C(=O)N(CCC1CN3CCC1CC3)C2 (racemic) [Compound 53, (R and S)-2-(2-(quinuclidin-3-yl)ethyl)-7-(1,3,5-trimethyl-1H-pyrazol-4-yl)isoindolin-1-one] | 48 nM |
| Cc1cnc2c(c1COc1cccc3c1C(=O)N(C(C1CC1)C(C)(C)O)C3)OCO2 (single isomer, unassigned) [Compound 181] | 54 nM |
| Cn1ccc2c(C(=O)Nc3cccc4c3C(=O)N(C(C3CC3)C3CC3)C4)cccc21 [Compound 126, N-(2-(dicyclopropylmethyl)-3-oxoisoindolin-4-yl)-1-methyl-1H-indole-4-carboxamide] | 35 nM |
| COc1cnc2cc(-c3cccc4c3C(=O)N([C@H](C3CC3)C(C)(C)O)C4)ccc2n1 [Compound 75, (R)-2-(1-cyclopropyl-2-hydroxy-2-methylpropyl)-7-(2-methoxyquinoxalin-6-yl)isoindolin-1-one] | 8.8 nM |
| Cc1cnc2c(c1NCc1cccc3c1C(=O)N(C(C1CC1)C(C)(C)O)C3)OCO2 (single isomer, unassigned) [Compound 178, (R or S)-2-(1-Cyclopropyl-2-hydroxy-2-methylpropyl)-7-(((6-methyl-[1,3]dioxolo[4,5-b]pyridin-7-yl)amino)methyl)isoindolin-1-one] | 21 nM |
| COc1cc(C#N)nc(-c2cccc3c2C(=O)N([C@H](C2CC2)C(C)(C)O)C3)c1 [Compound 97, (R)-6-(2-(1-cyclopropyl-2-hydroxy-2-methylpropyl)-3-oxoisoindolin-4-yl)-4-methoxypicolinonitrile] | 12 nM |
| CC(C)(O)C(C1CC1)N1Cc2cccc(C#Cc3ccnc4c3CCC4)c2C1=O (single isomer, unassigned) [Compound 172, (R or S)-2-(1-Cyclopropyl-2-hydroxy-2-methylpropyl)-7-((6,7-dihydro-5H-cyclopenta[b]pyridin-4-yl)ethynyl)isoindolin-1-one] | 9.7 nM |
| Cc1ccc(F)c(C(=O)Nc2cncc3c2C(=O)N([C@H](C2CC2)C(C)(C)O)C3)c1Cl [Compound 167, (R)-2-chloro-N-(2-(1-cyclopropyl-2-hydroxy-2-methylpropyl)-1-oxo-2,3-dihydro-1H-pyrrolo[3,4-c]pyridin-7-yl)-6-fluoro-3-methylbenzamide] | 2.1 nM |
| CC(C)[C@H](CO)N1Cc2cccc(NC(=O)c3nc(C(F)(F)F)ccc3Cl)c2C1=O [Compound 125, (R)-3-chloro-N-(2-(1-hydroxy-3-methylbutan-2-yl)-3-oxoisoindolin-4-yl)-6-(trifluoromethyl)picolinamide] | 30 nM |
| CC(C)(O)C(C1CC1)N1Cc2cccc(OCc3ccnc4c3CCC4)c2C1=O (single isomer, unassigned) [Compound 180, (R or S)-2-(1-cyclopropyl-2-hydroxy-2-methylpropyl)-7-((6,7-dihydro-5H-cyclopenta[b]pyridin-4-yl)methoxy)isoindolin-1-one] | 35 nM |
| CC(C)(O)[C@@H](C1CC1)N1Cc2cccc(-c3ccc(-c4ncco4)cc3)c2C1=O [Compound 77, (R)-2-(1-cyclopropyl-2-hydroxy-2-methylpropyl)-7-(4-(oxazol-2-yl)phenyl)isoindolin-1-one] | 39 nM |
| Cn1cc2c(C(=O)Nc3cccc4c3C(=O)N(C(C3CC3)C3CC3)C4)cccc2n1 [Compound 133, N-(2-(dicyclopropylmethyl)-3-oxoisoindolin-4-yl)-2-methyl-2H-indazole-4-carboxamide] | 49 nM |
| CC(C)(O)C(C1CC1)N1Cc2cccc(CCc3ccnc4c3CCC4)c2C1=O (single isomer, unassigned) [Compound 173, (R or S)-2-(1-Cyclopropyl-2-hydroxy-2-methylpropyl)-7-(2-(6,7-dihydro-5H-cyclopenta[b]pyridin-4-yl)ethyl)isoindolin-1-one] | 120 nM |
| Cc1nnc(-c2ccc(-c3cccc4c3C(=O)N([C@H](C3CC3)C(C)(C)O)C4)c(F)c2)o1 [Compound 68, (R)-2-(1-cyclopropyl-2-hydroxy-2-methylpropyl)-7-(2-fluoro-4-(5-methyl-1,3,4-oxadiazol-2-yl)phenyl)isoindolin-1-one] | 3.5 nM |
| CC(C)(O)C(C1CC1)N1Cc2cccc(NC(=O)c3c(Cl)cnc4c3CCO4)c2C1=O (single isomer, unassigned) [Compound 155, (R or S)-5-Chloro-N-(2-(1-cyclopropyl-2-hydroxy-2-methylpropyl)-3-oxoisoindolin-4-yl)-2,3-dihydrofuro[2,3-b]pyridine-4-carboxamide] | 0.19 nM |
| Cc1cnc2c(c1C(=O)Nc1cccc3c1C(=O)N(C(C1CC1)C(C)(C)O)C3)CCO2 (single isomer, unassigned) [Compound 168, (R or S)—N-(2-(1-Cyclopropyl-2-hydroxy-2-methylpropyl)-3-oxoisoindolin-4-yl)-5-methyl-2,3-dihydrofuro[2,3-b]pyridine-4-carboxamide] | 0.3 nM |
| O=C(Nc1cc(Cl)cc2c1C(=O)N(CC1CC1)C2)c1ccnc2c1CCC2 [Compound 143, N-(6-chloro-2-(cyclopropylmethyl)-3-oxoisoindolin-4-yl)-6,7-dihydro-5H-cyclopenta[b]pyridine-4-carboxamide] | 180 nM |
| CC(C)(O)C(C1CC1)N1Cc2nccc(NC(=O)c3ccnc4c3CCC4)c2C1=O (single isomer, unassigned) [Compound 152, (R or S)-N-(6-(1-cyclopropyl-2-hydroxy-2-methylpropyl)-5-oxo-6,7-dihydro-5H-pyrrolo [3,4-b]pyridin-4-yl)-6,7-dihydro-5H-cyclopenta[b]pyridine-4-carboxamide] | 96 nM |
| Cc1nnc(-c2cc(F)c(-c3cccc4c3C(=O)N([C@H](C3CC3)C(C)(C)O)C4)cc2C)o1 [Compound 70, (R)-2-(1-cyclopropyl-2-hydroxy-2-methylpropyl)-7-(2-fluoro-5-methyl-4-(5-methyl-1,3,4-oxadiazol-2-yl)phenyl)isoindolin-1-one] | 0.81 nM |
| Cc1nnc(-c2ccc(-c3cc(Cl)cc4c3C(=O)N(C(C3CC3)C(C)(C)O)C4)cc2)o1 (single isomer, unassigned) [Compound 39, (R or S)-5-chloro-2-(1-cyclopropyl-2-hydroxy-2-methylpropyl)-7-(4-(5-methyl-1,3,4-oxadiazol-2-yl)phenyl)isoindolin-1-one] | 0.8 nM |
| COc1nccc(C(=O)Nc2cccc3c2C(=O)N([C@H](C2CC2)C(C)(C)O)C3)c1C [Compound 159, (R)-N-(2-(1-cyclopropyl-2-hydroxy-2-methylpropyl)-3-oxoisoindolin-4-yl)-2-methoxy-3-methylisonicotinamide] | 2.5 nM |
